Usually IC50 stands for the concentration that gives 50% inhibition. A higher IC50 goes with lower potency. What is called Kd is the equilibrium constant for the complex coming apart. A low value points to higher affinity. For orientation: EC50 means the concentration that produces a half-maximal response.

This is an account of results in patent US6613760B1, “Indole derivatives and their use as MCP-1 receptor antagonists” (AstraZeneca AB, priority 1999, dated 2003).

In test [1] the target is T1, hMCP-1 receptor (Homo sapiens, UniProt P41597).
T1 construct: endogenous in cells; host or cells: human PBMCs from fresh donor blood (whole cells)
T1 sequence (P41597 1-360 isoform P41597-2): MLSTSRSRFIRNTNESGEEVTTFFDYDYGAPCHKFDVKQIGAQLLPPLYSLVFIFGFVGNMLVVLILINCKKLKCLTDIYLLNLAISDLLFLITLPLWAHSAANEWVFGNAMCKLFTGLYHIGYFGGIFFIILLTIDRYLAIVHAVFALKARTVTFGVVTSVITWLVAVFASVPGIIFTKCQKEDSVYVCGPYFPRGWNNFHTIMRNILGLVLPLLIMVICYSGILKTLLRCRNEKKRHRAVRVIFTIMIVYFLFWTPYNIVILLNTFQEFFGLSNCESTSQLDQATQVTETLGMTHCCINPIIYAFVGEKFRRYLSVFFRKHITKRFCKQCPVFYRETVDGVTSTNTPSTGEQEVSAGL
Description: 125I MCP-1 binding to human peripheral blood mononuclear cells (PBMCs). Particulars: 100 pM 125I-labeled MCP-1, 37° C. 60 minutes. The method, then:
Fresh human blood (200 ml) was obtained from volunteer donors, collected into sodium citrate anticoagulant to give a final concentration of 0.38%. The blood was mixed with Sedimentation Buffer and incubated at 37° C. for 20 minutes. The supernatant was collected and centrifuged at 1700 rpm for 5 minutes (Sorvall RT6000D). The pellet obtained was resuspended in 20 ml RPMI/BSA (1 mg/ml) and 4×5 mls of cells were carefully layered over 4×5 mls of Lymphoprepa (Nycomed) in 15 ml centrifuge tubes. Tubes were spun at 1700 rpm for 30 minutes (Sorvall RT6000D) and the resultant layer of cells was removed and transferred to 50 ml Falcon tubes. The cells were washed twice in Lysis Buffer to remove any remaining red blood cells followed by 2 washes in RPMI/BSA. Cells were resuspended in 5 mls of Binding Buffer. Cell number was measured on a Coulter counter and additional binding buffer was added to give a final concentration of 1.25×10^7 PBMCs/ml. […]
Test compound potency was determined by assay in duplicate using six point dose-response curves and IC50 concentrations were determined.

In test [2] the target is T2, MCP-1 receptor B (CCR2B) (Homo sapiens, UniProt P41597).
T2 construct: expressed in transfected cells; host or cells: CHO-K1 (clone 7, CHO-CCR2B), membrane fragments
T2 sequence (P41597 1-360 isoform P41597-2): T1 sequence (P41597 1-360 isoform P41597-2)
Description: hMCP-1 receptor binding assay, 125I MCP-1 on CHO-CCR2B cell membranes. The text has this:
The MCP-1 receptor B (CCR2B) cDNA was cloned by PCR from THP-1 cell RNA using suitable oligonucleotide primers based on the published MCP-1 receptor sequences (Charo et al., 1994, Proc. Natl. Acad. Sci. USA, 91, 2752). The resulting PCR products were cloned into vector PCR-II™ (InVitrogen, San Diego, Calif.). Error free CCR2B cDNA was subcloned as a Hind III-Not I fragment into the eukaryotic expression vector pCDNA3 (InVitrogen) to generate pCDNA3/CC-CKR2A and pCDNA3/CCR2B respectively.
Linearised pCDNA3/CCR2B DNA was transfected into CHO-K1 cells by calcium phosphate precipitation (Wigler et al., 1979, Cell, 16, 777). Transfected cells were selected by the addition of Geneticin Sulphate (G418, Gibco BRL) at 1 mg/ml, 24 hours after the cells had been transfected. Preparation of RNA and Northern blotting were carried out as described previously (Needham et al., 1995, Prot. Express. Purific., 6. 134). CHO-K1 clone 7 (CHO-CCR2B) was identified as the highest MCP-1 receptor B expressor.
CHO-CCR2B cells were grown in DMEM supplemented with 10% foetal calf serum, 2 mM glutamine. 1×Non-Essential Amino Acids. 1×Hypoxanthine and Thymidine Supplement and Penicillin-Streptomycin (at 50 μg streptomycin/ml, Gibco BRL). Membrane fragments were prepared using cell lysis/differential centrifugation methods as described previously (Siciliano et al., 1990, J. Biol. Chem., 265, 19658). […]

Test [3] deals with THP-1 cells. Description: hMCP-1 mediated chemotaxis of THP-1 cells. It counts as cell-based, human. Particulars: biphasic response. On the procedure:
In vitro chemotaxis assays were performed using the human monocytic cell line THP-1. Cell migration through polycarbonate membranes was measured by enumerating those passing through either directly by Coulter counting or indirectly by use of a colourimetric viability assay measuring the cleavage of a tetrazolium salt by the mitochondrial respiratory chain (Scudiero D. A. et al. 1988, Cancer Res., 48, 4827-4833).
Chemoattractants were introduced into a 96-well microtitre plate which forms the lower well of a chemotaxis chamber fitted with a PVP-free 5 μm poresize polycarbonate adhesive framed filter membrane (NeuroProbe MB series, Cabin John, Md. 20818. USA) according to the manufacturer's instructions. […] The plate was incubated at 37° C. for 3 h and the absorbance of the soluble formazan product was read on a microtitre plate reader at 450 nm. The data was input into a spreadsheet, corrected for any random migration in the absence of chemoattractant and the average absorbance values, standard error of the mean, and significance tests were calculated. hMCP-1 induced concentration dependent cell migration with a characteristic biphasic response, maximal […]. […]

Test [4] relates to THP-1 cells. Description: MCP-1 mediated calcium flux in THP-1 cells. The format is cell-based, human. Particulars: stimulation of THP-1 cells with hMCP-1; read-out: EC50 of rise in [Ca2+]i. The method, then:
The human monocytic cell line THP-1 as grown in a synthetic cell culture medium RPMI 1640 supplemented with 10% foetal calf serum, 6 mM glutamine and Penicillin-Streptomycin (at 50 μg streptomycin/ml, Gibco BRL). THP-1 cells were washed in HBSS (lacking Ca^2+ and Mg^2+)+1 mg/ml BSA and resuspended in the same buffer at a density of 3×10^6 cells/ml. The cells were then loaded with […] FURA-2/AM for 30 min at 37° C., washed twice in HBSS, and resuspended at 1×10^6 cells/mil. THP-1 cell suspension (0.9 ml) was added to a 5 ml disposable cuvette containing a magnetic stirrer bar and 2.1 ml of prewarmed (37° C.) HBSS containing 1 mg/ml BSA, 1 mM MgCl, and 2 mM CaCl2. The cuvette was placed in a fluorescence spectrophotometer (Perkin Elmer, Norwalk. Conn.) and preincubated for 4 min at 37° C. with stirring. Fluorescence was recorded over 70 sec and cells were stimulated by addition of hMCP-1 to the cuvette after 10 sec. [Ca^2+]i was measured by excitation at 340 nm and 380 nm alternately and subsequent measurement of the intensity of the fluorescence emission at 510 nm.
where the Kd for FURA-2 Ca^2+ complex at 37° C. was taken to be 224 nm. […]
A general note: Calcium assays in cells follow changes in intracellular calcium, usually with a dye or a luminescent sensor.

In the case of `CS(=O)(=O)NCCNC(=O)c1cccc2c1cc(C(=O)O)n2Cc1ccc(Cl)c(Cl)c1` [Compound 9], the concentration for half-maximal inhibition (IC50) in test [1] came out at 640 nM.

With “MCP-1: Human Monocyte Chemoattractant Protein-1, a C—C chemokine, ligand of the MCP-1 (CCR2) receptor”, in test [2] (cold competition with 100 pM 125I-labeled MCP-1, CHO-CCR2B membrane fragments), the half-inhibitory concentration (IC50) amounted to 0.11 nM. Binding in test [2] (equilibrium binding, CHO-CCR2B membrane fragments) was characterised by a dissociation constant (Kd) of 0.12 nM. The “concentration of maximal cell migration” value in test [3] was 0.5-1.0 nm. Besides, the half-maximal effective concentration (EC50) in test [4] is approximately 2 nM.
